Data: patent publication US20050032096A1, “Methods for predicting drug sensitivity in patients afflicted with hypertension” (deCODE genetics ehf., priority 2003, published 2005)

What was measured:
hypertensive patients = experiment: Clinical response to 8 weeks of drug therapy, patients categorized as responders or non-responders; assay type: in vivo, human; settings: 8 weeks therapy; for patients who demonstrate a clinical response (responders): BP reduced by 10 mm/Hg systole and/or 6 mm/Hg diastole or more
Excerpt: • a. Hypertension diagnosed by a Cardiologist. The method used to diagnose hypertension is based on the ICE-9 and ICD-10 classification system, and concurs with the diagnostic hypertension criteria outlined by the American Heart Association and includes the following measures: Blood pressure greater than 140 systolic and 90 diastolic (adult person). For this study, individuals will be recruited primarily with moderate to severe hypertension. • b. Patients with hypertension with a severity level that is judged to be appropriate to treatment with Ramace™ were recruited to participate in the study. Study patients signed a consent and donate a blood sample for the study. • c. Phenotype was confirmed by measurement of blood pressure levels at different time points. • d. Age 12-80 years. • e. Both males and females were recruited. • f. White Caucasian (Icelandic hypertensive patient population). • g. Ramace™ therapy for 8 weeks. Examination by a study cardiologist every 3 weeks who confirmed clinical response to Ramace™ therapy. • h. Response to Ramace™: Patients were categorized as either Ramace™ responders or Ramace™ non-responders. […] The same cardiologists examined all 57 patients before and after Ramace™ trial.
All patients recruited were treated with therapeutic doses of Ramace™ for minimum of 8 weeks and examined by the study cardiologist before and after starting the drug. Blood samples were drawn at a similar time (e.g., around 9 AM) in the morning from all patients. The dose of the ACE inhibitor was recorded for all patients, before and 4 weeks after the patient was started on the study drug. No diet restrictions are implemented.
(§1) • a. Hypertension diagnosed by a Cardiologist. The method used to diagnose hypertension is based on the ICE-9 and ICD-10 classification system, and concurs with the diagnostic hypertension criteria outlined by the American Heart Association and includes the following measures: Blood pressure greater than 140 systolic and 90 diastolic (adult person). For this study, individuals will be recruited primarily with moderate to severe hypertension. • b. Patients with hypertension with a severity level that is judged to be appropriate to treatment with Norvasc™ were recruited to participate in the study. Study patients signed a consent and donate a blood sample for the study. • c. Phenotype was confirmed by measurement of blood pressure levels at different time points. • d. Age 12-80 years. • e. Both males and females were recruited. • f. White Caucasian (Icelandic hypertensive patient population). • g. […] Response to Norvasc™: Patients were categorized as either Norvasc™ responders or Norvasc™ non-responders.
Blood samples were drawn at a similar time (e.g., around 9 AM) in the morning from all patients. The dose was recorded for all patients. No diet restrictions were implemented.
as §1, with “Cozaar™” for “Norvasc™”, “Cozaar™:” for “Norvasc™:”

AT1 receptor = biological target: T1, AT1 receptor (Homo sapiens, UniProt P30556); settings: cited from earlier work
T1 sequence (P30556 1-359): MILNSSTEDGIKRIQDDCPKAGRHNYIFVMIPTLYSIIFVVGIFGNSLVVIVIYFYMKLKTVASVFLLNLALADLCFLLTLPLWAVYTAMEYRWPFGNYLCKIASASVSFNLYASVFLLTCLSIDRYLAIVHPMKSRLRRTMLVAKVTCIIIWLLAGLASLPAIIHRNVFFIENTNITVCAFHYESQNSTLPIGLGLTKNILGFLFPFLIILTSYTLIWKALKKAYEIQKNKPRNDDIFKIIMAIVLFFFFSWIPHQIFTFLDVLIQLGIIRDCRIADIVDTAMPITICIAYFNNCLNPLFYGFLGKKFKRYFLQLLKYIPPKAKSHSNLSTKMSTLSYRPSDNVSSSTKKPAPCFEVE

ACE = ACE (Homo sapiens, UniProt P12821); settings: cited from earlier work
ACE, sequence (P12821 30-1306, species assumed): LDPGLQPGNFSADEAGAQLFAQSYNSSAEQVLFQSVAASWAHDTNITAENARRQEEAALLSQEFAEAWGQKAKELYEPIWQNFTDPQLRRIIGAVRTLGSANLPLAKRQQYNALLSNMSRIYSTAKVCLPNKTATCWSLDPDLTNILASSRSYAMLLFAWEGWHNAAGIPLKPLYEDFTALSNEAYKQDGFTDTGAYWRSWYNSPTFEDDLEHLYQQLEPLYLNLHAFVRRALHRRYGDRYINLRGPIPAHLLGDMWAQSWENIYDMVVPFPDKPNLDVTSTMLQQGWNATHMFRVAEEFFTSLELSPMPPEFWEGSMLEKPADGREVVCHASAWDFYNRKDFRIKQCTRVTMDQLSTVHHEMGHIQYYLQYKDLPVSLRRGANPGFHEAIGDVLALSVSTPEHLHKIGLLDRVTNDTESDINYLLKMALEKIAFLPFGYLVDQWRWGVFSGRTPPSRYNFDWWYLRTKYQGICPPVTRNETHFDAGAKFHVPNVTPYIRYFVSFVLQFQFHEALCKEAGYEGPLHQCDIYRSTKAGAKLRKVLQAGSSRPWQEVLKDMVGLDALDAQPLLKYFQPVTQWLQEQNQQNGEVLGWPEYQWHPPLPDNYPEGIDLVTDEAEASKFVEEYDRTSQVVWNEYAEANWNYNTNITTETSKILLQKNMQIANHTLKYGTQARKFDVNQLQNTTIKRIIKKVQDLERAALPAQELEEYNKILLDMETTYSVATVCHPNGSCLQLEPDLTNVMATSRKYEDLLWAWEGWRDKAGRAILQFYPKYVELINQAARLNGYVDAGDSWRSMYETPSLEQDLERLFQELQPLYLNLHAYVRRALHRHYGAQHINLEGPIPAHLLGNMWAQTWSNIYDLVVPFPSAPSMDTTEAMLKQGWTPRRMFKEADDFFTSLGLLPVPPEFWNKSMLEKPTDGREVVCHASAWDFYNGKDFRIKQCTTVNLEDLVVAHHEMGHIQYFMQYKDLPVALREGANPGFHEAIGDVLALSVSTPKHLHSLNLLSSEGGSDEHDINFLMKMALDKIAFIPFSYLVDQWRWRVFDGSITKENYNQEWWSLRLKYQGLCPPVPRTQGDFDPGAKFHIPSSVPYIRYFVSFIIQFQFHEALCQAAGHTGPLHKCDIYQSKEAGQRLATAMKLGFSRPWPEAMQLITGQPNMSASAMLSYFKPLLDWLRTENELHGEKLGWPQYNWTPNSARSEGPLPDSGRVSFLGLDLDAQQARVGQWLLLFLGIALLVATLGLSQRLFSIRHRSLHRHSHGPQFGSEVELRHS

[1] = in vivo; cited from earlier work
[2] = system: patients with chronic stable angina; settings: placebo 4.4%, P=NS; cited from earlier work
[3] = system: patients with low renin hypertension; settings: cited from earlier work

Row | SMILES | non-responders (hypertensive patients; of 65 hypertensive patients) | patients who demonstrate a clinical response (responders) (hypertensive patients; of 65 hypertensive patients) | partial agonist activity at the AT1 receptor (AT1 receptor) | inhibition of ACE (ACE) | time to mean peak serum concentration [1] | patients who discontinued therapy due to adverse events [2] | non-responders (hypertensive patients; of 57 hypertensive patients) | patients who demonstrate a clinical response (responders) (hypertensive patients; of 57 hypertensive patients) | anti-hypertensive effect [3]
1 | CCCCc1nc(Cl)c(CO)n1Cc1ccc(-c2ccccc2-c2nn[nH]n2)cc1 [Cozaar, Losartan potassium] | 18 patients | 47 patients | do not exhibit any partial agonist activity | Neither losartan nor its active metabolite inhibits ACE | one |  |  |  | 
2 | CCOC(=O)C1=C(COCCN)NC(C)=C(C(=O)OC)C1c1ccccc1Cl (centres unmarked) [Norvasc, amlodipine] | 19 patients | 46 patients |  |  |  | 2% |  |  | 
3 | CCOC(=O)[C@H](CCc1ccccc1)N[C@@H](C)C(=O)N1[C@H](C(=O)O)C[C@@H]2CCC[C@@H]21 [Ramace, ramipril] |  |  |  |  |  |  | 22 patients | 35 patients | anti-hypertensive
